Assay results published in patent US20160017048A1, “TARGETING CD138 IN CANCER” (priority 2013, published 2016).

What was measured:
iC9 suicide gene [1] = test: in vitro elimination of transduced T cells by AP1903 activation of iC9; type: cell-based; conditions: within 24 hrs of in vitro exposure to AP1903 (20-50 nM)
Method: A stable producer line with a titer >10^6 per mL may be developed. The T-cell transduction efficiency may range from 30% to 40% in hypoxia (FIG. 3). Redirected T cells can eliminate CD138+ targets in coculture experiments in hypoxia and can be rapidly eliminated (>90% of transduced cells) within 24 hrs of in vitro exposure to AP1903 (20-50 nM), the small molecule dimerizer that activates the iC9 suicide gene.

iC9 suicide gene [2] = test: in vivo elimination of hCAR.CD138 T cells by AP1903 in patients; design: species or system human; conditions: within 3 hours of AP1903 administration
Description: Persistence and expansion of transferred T cells are estimated using immunophenotype and real-time quantitative PCR assay (Q-PCR) in DNA extracted from PB collected at different time points after T-cell infusions. BM samples are collected at week 6 as part of the clinical evaluation of these patients. Plasma samples are collected and snap frozen at intervals to detect IL-2, IL6, IFNγ and TNFα released by T cells in vivo. One can also seek clinical evidence of antitumor activity by monitoring paraprotein levels and PC BM infiltration at 6, 12 and 24 weeks, for example. Patients are closely monitored for the occurrence of toxicity according to NCI criteria. In the case of grade III-IV toxicity, patients are treated with AP1903 to activate the iC9 gene as previously reported. The iC9 effects are quantified by measuring the loss of CAR+ circulating cells and by changes in the iC9 transgene by QPCR.
The molecular signal of the CAR (which is hypoxia independent) is detected both in PB and BM samples by week 6, even though there may be higher signal in the BM because of the accumulation of CAR T cells. The expression of the CAR by flow cytometry in T cells (which is hypoxia dependent, as it detects protein synthesis) is anticipated to be much higher in BM as compared to PB because MM BM is hypoxic. […]

CC[C@H](C(=O)N1CCCC[C@H]1C(=O)O[C@H](CCc1ccc(OC)c(OC)c1)c1cccc(OCC(=O)NCCNC(=O)COc2cccc([C@@H](CCc3ccc(OC)c(OC)c3)OC(=O)[C@@H]3CCCCN3C(=O)[C@@H](CC)c3cc(OC)c(OC)c(OC)c3)c2)c1)c1cc(OC)c(OC)c(OC)c1 [AP1903]
transduced cells eliminated (iC9 suicide gene [1]): > 90%
hCAR.CD138T eliminated (iC9 suicide gene [2]): > 90%
